Laboratory results reported in article PMC6268880, “IMB2026791, a Xanthone, Stimulates Cholesterol Efflux by Increasing the Binding of Apolipoprotein A-I to ATP-Binding Cassette Transporter A1” (Molecules, 2012).

Target: T1, ATP-binding cassette transporter A1 (ABCA1) (Homo sapiens, UniProt O95477)
T1 construct: full-length ABCA1 (pIRES2-EGFP-ABCA1) in CHO cells; with apoA-I
Experiment: cell-based ELISA-like apoA-I binding to ABCA1-transfected CHO cells, with vector-only control; western blot

T1 sequence (O95477 whole entry): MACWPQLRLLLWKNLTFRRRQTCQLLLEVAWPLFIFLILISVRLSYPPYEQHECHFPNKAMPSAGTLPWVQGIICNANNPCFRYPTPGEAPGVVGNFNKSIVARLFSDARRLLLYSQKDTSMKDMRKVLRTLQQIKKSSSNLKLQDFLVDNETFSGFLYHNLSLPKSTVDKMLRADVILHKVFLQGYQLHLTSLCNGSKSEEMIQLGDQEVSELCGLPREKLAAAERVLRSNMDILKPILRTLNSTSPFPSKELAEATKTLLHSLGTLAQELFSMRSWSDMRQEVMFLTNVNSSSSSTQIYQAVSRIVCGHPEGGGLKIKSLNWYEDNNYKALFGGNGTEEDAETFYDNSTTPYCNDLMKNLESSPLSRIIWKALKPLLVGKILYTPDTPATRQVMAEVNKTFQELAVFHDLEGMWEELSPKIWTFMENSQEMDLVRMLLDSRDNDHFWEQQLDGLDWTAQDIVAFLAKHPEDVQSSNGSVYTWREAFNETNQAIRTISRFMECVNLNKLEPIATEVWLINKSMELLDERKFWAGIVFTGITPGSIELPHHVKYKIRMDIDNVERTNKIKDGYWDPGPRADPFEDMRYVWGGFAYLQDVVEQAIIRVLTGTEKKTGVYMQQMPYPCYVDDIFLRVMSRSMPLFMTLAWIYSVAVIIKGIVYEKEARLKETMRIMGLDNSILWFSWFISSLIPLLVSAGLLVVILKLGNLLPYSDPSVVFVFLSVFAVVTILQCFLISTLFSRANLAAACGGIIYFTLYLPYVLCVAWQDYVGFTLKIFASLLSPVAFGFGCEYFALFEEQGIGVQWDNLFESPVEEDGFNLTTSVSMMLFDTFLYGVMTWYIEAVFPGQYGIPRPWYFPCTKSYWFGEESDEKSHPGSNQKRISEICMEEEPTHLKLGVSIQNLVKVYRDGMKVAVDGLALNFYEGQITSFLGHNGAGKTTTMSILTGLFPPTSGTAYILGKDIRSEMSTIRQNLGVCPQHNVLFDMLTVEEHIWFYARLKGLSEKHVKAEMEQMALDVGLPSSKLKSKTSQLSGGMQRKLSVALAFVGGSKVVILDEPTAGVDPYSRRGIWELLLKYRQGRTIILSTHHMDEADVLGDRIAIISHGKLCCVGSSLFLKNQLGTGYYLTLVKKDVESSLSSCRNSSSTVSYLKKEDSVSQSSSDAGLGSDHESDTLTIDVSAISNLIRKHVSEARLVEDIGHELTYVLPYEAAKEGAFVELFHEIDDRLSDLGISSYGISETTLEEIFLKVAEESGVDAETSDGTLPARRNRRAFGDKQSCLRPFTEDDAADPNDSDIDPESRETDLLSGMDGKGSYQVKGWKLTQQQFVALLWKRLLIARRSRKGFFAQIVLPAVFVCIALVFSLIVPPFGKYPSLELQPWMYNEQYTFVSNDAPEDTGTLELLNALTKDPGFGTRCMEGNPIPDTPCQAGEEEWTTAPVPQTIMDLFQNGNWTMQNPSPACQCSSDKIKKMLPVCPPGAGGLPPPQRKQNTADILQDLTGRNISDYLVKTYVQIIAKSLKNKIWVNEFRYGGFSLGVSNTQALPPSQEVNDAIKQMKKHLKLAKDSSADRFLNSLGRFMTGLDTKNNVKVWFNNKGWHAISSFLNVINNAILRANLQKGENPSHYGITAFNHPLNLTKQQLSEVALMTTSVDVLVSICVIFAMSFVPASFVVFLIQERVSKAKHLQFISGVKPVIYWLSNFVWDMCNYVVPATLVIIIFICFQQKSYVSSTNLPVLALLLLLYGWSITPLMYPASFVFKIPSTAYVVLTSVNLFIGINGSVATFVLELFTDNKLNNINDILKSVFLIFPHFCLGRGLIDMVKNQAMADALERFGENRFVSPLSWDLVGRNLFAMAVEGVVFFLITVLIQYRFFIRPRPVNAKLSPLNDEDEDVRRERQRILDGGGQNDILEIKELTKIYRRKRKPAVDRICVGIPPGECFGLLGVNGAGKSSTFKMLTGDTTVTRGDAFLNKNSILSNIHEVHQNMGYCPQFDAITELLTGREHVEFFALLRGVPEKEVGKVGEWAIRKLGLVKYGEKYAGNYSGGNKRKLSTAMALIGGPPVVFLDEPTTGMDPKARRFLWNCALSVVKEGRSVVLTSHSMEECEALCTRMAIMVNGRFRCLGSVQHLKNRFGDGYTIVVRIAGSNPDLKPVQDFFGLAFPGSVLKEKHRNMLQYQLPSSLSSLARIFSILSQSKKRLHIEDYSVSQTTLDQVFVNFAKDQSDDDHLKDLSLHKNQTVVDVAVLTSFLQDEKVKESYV
T1 sequence (P02647 25-267 partner): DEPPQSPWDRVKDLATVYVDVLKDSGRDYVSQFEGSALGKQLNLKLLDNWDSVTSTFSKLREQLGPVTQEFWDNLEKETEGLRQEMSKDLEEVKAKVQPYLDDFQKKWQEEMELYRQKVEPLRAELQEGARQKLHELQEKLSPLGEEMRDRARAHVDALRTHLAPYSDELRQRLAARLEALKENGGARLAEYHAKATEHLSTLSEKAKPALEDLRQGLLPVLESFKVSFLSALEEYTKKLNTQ

COc1ccc(Cl)cc1C(=O)NCCc1ccc(S(=O)(=O)NC(=O)NC2CCCCC2)cc1 [glibenclamide]
cell-based ELISA-like apoA-I binding to ABCA1-transfected CHO cells, with vector: an inhibition by glibenclamide was observed on transfected cells expressing ABCA1
